Measurements taken from PMC5182133 (Cell chemical biology, 2016).

What was measured:
[1] = target: T1, DCK (Homo sapiens, UniProt P27707); assay: Affinity matrix pulldown and immunoblot for DCK; format: binding; conditions: CAL-51 lysate
[2] = system: CAL-51 shH6PD cells; assay: Cell viability in CAL-51 shNT vs shH6PD cells; format: cell-based; conditions: CAL-51 shH6PD vs shNT, 5 d
[3] = target: T2, H6PD (Homo sapiens, UniProt O95479); assay: Affinity matrix pulldown and immunoblot for H6PD; format: binding; conditions: CAL-51 lysate; competed with 20 μM free rucaparib
T2 sequence (O95479 20-791): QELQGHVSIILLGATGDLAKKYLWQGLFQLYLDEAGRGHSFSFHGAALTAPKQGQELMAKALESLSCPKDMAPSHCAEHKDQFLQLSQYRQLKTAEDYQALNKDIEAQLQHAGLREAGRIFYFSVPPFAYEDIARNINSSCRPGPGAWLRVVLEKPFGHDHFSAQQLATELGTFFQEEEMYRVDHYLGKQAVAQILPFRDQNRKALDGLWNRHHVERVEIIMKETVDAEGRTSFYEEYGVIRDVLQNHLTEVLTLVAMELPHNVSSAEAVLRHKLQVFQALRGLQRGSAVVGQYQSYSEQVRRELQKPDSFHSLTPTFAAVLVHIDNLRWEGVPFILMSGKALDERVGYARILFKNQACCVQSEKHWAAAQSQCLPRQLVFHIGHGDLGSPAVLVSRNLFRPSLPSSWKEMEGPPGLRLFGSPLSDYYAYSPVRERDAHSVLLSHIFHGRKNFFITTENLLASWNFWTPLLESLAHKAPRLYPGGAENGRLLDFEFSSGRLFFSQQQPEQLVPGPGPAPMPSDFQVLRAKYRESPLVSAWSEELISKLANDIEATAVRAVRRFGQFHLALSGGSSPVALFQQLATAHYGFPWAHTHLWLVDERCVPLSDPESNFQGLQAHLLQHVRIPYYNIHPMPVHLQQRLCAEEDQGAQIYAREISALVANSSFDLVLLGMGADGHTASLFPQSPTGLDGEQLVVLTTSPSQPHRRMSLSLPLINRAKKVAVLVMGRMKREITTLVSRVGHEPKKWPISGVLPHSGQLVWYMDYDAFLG

[4] = system: H322 cells; assay: H322 cell viability; format: cell-based; conditions: 5 d, CellTiterGlo
[5] = ref Plummer et al., 2008; cited from earlier work
[6] = reach as high as; ref Murray et al., 2014; cited from earlier work
[7] = system: CAL-51 H6PD-OE cells; assay: Cell viability in CAL-51 parental vs H6PD-overexpressing cells; format: cell-based; conditions: CAL-51 H6PD-OE vs parental, 5 d
[8] = system: CAL-51 cells; assay: Immunoblot of apoptosis markers in CAL-51 cells after PARPi treatment; format: cell-based; conditions: 48 h, 40 μM PARPi
[9] = ref Haura et al., 2010; cited from earlier work
[10] = target: T2, H6PD; conditions: read-out: IC50 for H6PD inhibition (reported); ref Tagawa et al., 2015; cited from earlier work
[11] = system: A549 cells; conditions: 2 μM cytarabine, 3 days
[12] = target: T1, DCK; conditions: compared to the other PARPi

T1 sequence (P27707 whole entry): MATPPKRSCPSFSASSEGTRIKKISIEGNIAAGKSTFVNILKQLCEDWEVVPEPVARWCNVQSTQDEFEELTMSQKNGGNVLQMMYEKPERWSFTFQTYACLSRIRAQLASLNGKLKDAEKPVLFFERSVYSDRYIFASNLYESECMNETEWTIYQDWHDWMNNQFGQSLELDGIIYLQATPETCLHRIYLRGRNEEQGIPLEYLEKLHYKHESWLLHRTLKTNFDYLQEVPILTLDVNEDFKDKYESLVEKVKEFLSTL

NCCCN1CCC[C@@H](c2ccc(-n3cc4cccc(C(N)=O)c4n3)cc2)C1 [c-niraparib]
Enrichment of DCK by affinity matrix (immunoblot) [1]: confirmed

O=C(c1cc(Cc2n[nH]c(=O)c3ccccc23)ccc1F)N1CCN(C(=O)C2CC2)CC1 [olaparib]
Effect of stable H6PD knockdown on potency (cell viability) [2]: increased the potency

Cn1ncnc1[C@H]1c2n[nH]c(=O)c3cc(F)cc(c23)N[C@@H]1c1ccc(F)cc1 [talazoparib]
Effect of stable H6PD knockdown on potency (cell viability) [2]: increased the potency

CN(CCCN)Cc1ccc(-c2[nH]c3cc(F)cc4c3c2CCNC4=O)cc1 [c-rucaparib]
Enrichment of H6PD by affinity matrix (immunoblot) [3]: specifically enriched

CNCc1ccc(-c2[nH]c3cc(F)cc4c3c2CCNC4=O)cc1 [rucaparib]
Viability of H322 cells at high concentrations compared to other PARPi [4]: decreased more | Plasma levels in patients [5]: 2700 nM | Concentrations in murine tumors [6]: ~ 20 μM | Effect of stable H6PD overexpression on IC50 for inhibition of cell viability [7]: increased the IC50 | PARP1 and caspase-3 cleavage compared to the other PARPi [8]: increased

COc1cc2ncnc(Nc3ccc(F)c(Cl)c3)c2cc1OCCCN1CCOCC1 [gefitinib]
Drug concentration in human tumor tissue relative to plasma levels [9]: up to 40 fold

O=c1c(-c2ccc(O)cc2)coc2cc(O)cc(O)c12 [genistein]
IC50 [10]: > 50 µM

NC(=O)c1cccc2cn(-c3ccc([C@@H]4CCCNC4)cc3)nc12 [niraparib]
Rescue of A549 cells from cytarabine toxicity ([11]; DI-39 as positive control): dose-dependently rescued | Concentrations needed to observe reduced cytarabine toxicity ([11]; A549 cells): 20 to 40 µM | Inhibition of DCK activity in cell-free extracts [12]: specific inhibition
